Results taken from patent publication US9377453B2, “Systems and methods for detection of cellular stress” (RAMOT AT TEL AVIV UNIVERSITY LTD., priority 2010, dated 2016).
Entries after “also recorded” stand apart in the source; their conditions may differ.

Tested on: CHO cells
Test: Subcellular localization of Cy3-labeled tRNA in CHO cells treated with puromycin
Format: cell-based, Chinese hamster
Settings: puromycin 1 mM, 0.5 h, 7 h post transfection; treated vs untreated CHO cells
Method: Chinese hamster ovary cells (CHO-Ki) were maintained in nutrient mixture F-12 (Ham) supplemented with 10% (v/v) fetal calf serum, 5 mM L-glutamine and antibiotics (all from Biological Industries).
Transfection—Cells were seeded in the day preceding the transfection (1.5×10^5 cells, 12 mm coverslips, in 24-well plates). Transfection was with 3 μg of yeast labeled-bulk tRNA (Interferin™, polyplus-transfection, according to manufacture's instructions). For DNA transfection (pSuper-retro-GFP), 9×10^4 cells/well were transfected with 1 μg DNA (TransIT-LT1 transfection reagent, according to manufacture's protocol). The following day, cells were re-transfected with labeled tRNA as described above.
Quantitative image analysis—For quantitative analysis of spatial distribution of the labeled tRNA and additional cellular markers, the entire cell volume was imaged by spinning disk confocal microscopy (0.15 μm between planes of the z-stack) with a 100× lens and 1×1 “on chip binning” yielding a pixel size of 100×100 nm; and deconvolved with the constrained iterative algorithm of Slidebook™ which employs an experimentally measured point spread function (PSF). […]

COc1ccc(C[C@H](N)C(=O)N[C@H]2[C@@H](O)[C@H](n3cnc4c(N(C)C)ncnc43)O[C@@H]2CO)cc1 [puromycin]
Nuclear localization of labeled tRNA (tRNA signal co-localizing with Hoechst signal): marked accumulation of tRNA in the nucleus; also recorded: increase in nuclear localization of labeled tRNA
